Results published in patent USRE47689E1, “Compounds for treating spinal muscular atrophy” (PTC Therapeutics, Inc., priority 2011, dated 2019).
Like-named read-outs stand apart in the source and are kept apart here.

Legend:
[1] = system: Smn protein; assay: Smn protein assay in cultured cells (SMN HTRF); format: cell-based, human; conditions: for EC1.5x (concentration giving 1.5-fold Smn protein increase): read-out: EC1.5x for Smn protein expression
Outline: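 Lysates in RIPA with protease inhibitors are incubated overnight at room temperature with HTRF anti-SMN antibodies. EC1.5x is derived from fold increase in ΔF over vehicle.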

[2] = system: SMN2 minigene (full length SMN2 minigene mRNA containing SMN2 exon 7); assay: SMN2 minigene mRNA splicing RT-qPCR assay in cultured cells; format: cell-based, human; conditions: Homo sapiens, HEK293-H, read-out: EC1.5x for production of full length SMN2 mRNA
Outline: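 HEK293H cells stably carrying the SMN2-A minigene treated 24 h at 37° C with compound (DMSO, 200× stock), then lysed. Multiplex RT-qPCR (SMN primers 0.4 μM final; 40 cycles) measures full-length exon 7-containing minigene mRNA, normalized to GAPDH and to vehicle; EC1.5x derived and binned by stars.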

[3] = SMA patient fibroblast cells, 48 hours, 7-point concentration data, fold increase relative to vehicle control (SMN HTRF)
[4] = HEK293H cells stably transfected with SMN2-A minigene, 24 hours, 7-point concentration curve, 1.5-fold relative to vehicle-treated cells
[5] = SMA Type 1 patient fibroblast cells (GM03813), 48 hours, 7-point concentration curve, SMN HTRF, concentration producing 1.5 times Smn protein vs DMSO vehicle control

Structure (SMILES) | melting point [°C] | maximum fold (Fold) increase of Smn protein [1, 3] | EC (1.5-fold) [2, 4] [µM] | EC1.5x (concentration giving 1.5-fold Smn protein increase) [1, 5] [nM] | maximum fold (Fold) increase of Smn protein [1] | EC1.5x (concentration giving 1.5-fold Smn protein increase) [1] [nM] | EC (1.5-fold) ([2]; 24 h) [µM]
Cc1cn2cc(-c3cc4ccc(N5C[C@H]6CCCN[C@H]6C5)cc4oc3=O)nc2cn1 [Compound 719, 3-(6-methylimidazo[1,2-a]pyrazin-2-yl)-7-[(4aR,7aR)-octahydro-6H-pyrrolo[3,4-b]pyridin-6-yl]-2H-chromen-2-one] | 282 to 291 | ** (fold increase between >1.2 and ≤1.35) | < 0.1 | – | – | – | –
Cc1cn2cc(-c3cc4ccc(C5CCN(C6CC6)CC5)cc4oc3=O)nc2c(C)n1 [Compound 854, 7-(1-cyclopropylpiperidin-4-yl)-3-(6,8-dimethylimidazo[1,2-a]pyrazin-2-yl)-2H-chromen-2-one] | 236 to 243 | ***** (fold increase >1.65) | < 0.1 | < 300 | – | – | –
COc1cccc(-c2cc3c(F)cc(N4CCNCC4)cc3oc2=O)n1 [Compound 468, 5-fluoro-3-(6-methoxypyridin-2-yl)-7-(piperazin-1-yl)-2H-chromen-2-one] | 231 to 236 | ** (fold increase between >1.2 and ≤1.35) | 0.3 to 1 | – | – | – | –
CCCN1CCN(c2ccc3cc(-c4cn5cccc(Cl)c5n4)c(=O)oc3c2)CC1 [Compound 119, 3-(8-chloroimidazo[1,2-a]pyridin-2-yl)-7-(4-propylpiperazin-1-yl)-2H-chromen-2-one] | 245 to 247 | ** (fold increase between >1.2 and ≤1.35) | 0.3 to 1 | – | – | – | –
O=c1oc2cc(N3CCNCC3)ccc2cc1-c1cn2cc(C3CC3)cc(F)c2n1 [Compound 500, 3-(6-cyclopropyl-8-fluoroimidazo[1,2-a]pyridin-2-yl)-7-(piperazin-1-yl)-2H-chromen-2-one] | 261 to 271 | * (maximum fold increase of ≤1.2) | 0.3 to 1 | – | – | – | –
CN1CCCN(c2ccc3cc(-c4nc(C(F)(F)F)cs4)c(=O)oc3c2)CC1 [Compound 238, 7-(4-methyl-1,4-diazepan-1-yl)-3-[4-(trifluoromethyl)-1,3-thiazol-2-yl]-2H-chromen-2-one] | 218 to 225 | * (maximum fold increase of ≤1.2) | 1 to 3 | – | – | – | –
Cc1cn2cc(-c3cc4ccc(N5CCN(C)[C@H](C)C5)cc4oc3=O)nc2cn1 [Compound 628, 7-[(3R)-3,4-dimethylpiperazin-1-yl]-3-(6-methylimidazo[1,2-a]pyrazin-2-yl)-2H-chromen-2-one] | 256 to 258 | **** (fold increase between >1.5 and ≤1.65) | < 0.1 | < 300 | – | – | –
Cc1cn2cc(-c3cc4ccc(NC5CNC5)cc4oc3=O)nc2c(C)n1 [Compound 619, 7-(azetidin-3-ylamino)-3-(6,8-dimethylimidazo[1,2-a]pyrazin-2-yl)-2H-chromen-2-one] | 250 to 256 | **** (fold increase between >1.5 and ≤1.65) | < 0.1 | < 300 | – | – | –
Cc1csc(-c2cc3ccc(N4C[C@@H](C)N[C@@H](C)C4)cc3oc2=O)n1 [Compound 286, 7-[(3R,5S)-3,5-dimethylpiperazin-1-yl]-3-(4-methyl-1,3-thiazol-2-yl)-2H-chromen-2-one] | 178 to 183 | * (maximum fold increase of ≤1.2) | 1 to 3 | – | – | – | –
Cc1cn2cc(-c3cc4ccc(CCN5CCNCC5)cc4oc3=O)nc2c(C)n1 [Compound 866, 3-(6,8-dimethylimidazo[1,2-a]pyrazin-2-yl)-7-[2-(piperazin-1-yl)ethyl]-2H-chromen-2-one] | 186 to 188 | *** (fold increase between >1.35 and ≤1.5) | 0.1 to 0.3 | 300 to 1000 | – | – | –
Cc1cn2cc(-c3cc4ccc(N5CC(N(C)C)C5)cc4oc3=O)nc2c(C)n1 [Cpd 943, 7-[3-(dimethylamino)azetidin-1-yl]-3-(6,8-dimethylimidazo[1,2-a]pyrazin-2-yl)-2H-chromen-2-one] | 246 to 250 | **** (fold increase between >1.5 and ≤1.65) | < 0.1 | < 300 | – | – | –
Cc1cn2cc(-c3cc4ccc(N5CCN(C)[C@@H](C)C5)cc4oc3=O)ccc2n1 [Compound 675, 7-[(3S)-3,4-dimethylpiperazin-1-yl]-3-(2-methylimidazo[1,2-a]pyridin-6-yl)-2H-chromen-2-one] | 205 to 207 | **** (fold increase between >1.5 and ≤1.65) | < 0.1 | 1000 to 3000 | – | – | –
O=c1oc2cc(N3CCN4CCC3CC4)ccc2cc1-c1cn2ccsc2n1 [Compound 438, 7-(1,4-diazabicyclo[3.2.2]non-4-yl)-3-(imidazo[2,1-b][1,3]thiazol-6-yl)-2H-chromen-2-one] | > 300 | – | – | – | *** (key: *: maximum fold increase of ≤1.2; **: fold increase between >1.2 and ≤1.35; ***: fold increase between >1.35 and ≤1.5; ****: fold increase between >1.5 and ≤1.65; *****: fold increase >1.65) | 1000 to 3000 | 0.1 to 0.3
Cc1cn2cc(-c3cc4ccc(CCNC(CO)CO)cc4oc3=O)nc2c(C)n1 [Compound 873, 7-{2-[(1,3-dihydroxypropan-2-yl)amino]ethyl}-3-(6,8-dimethylimidazo[1,2-a]pyrazin-2-yl)-2H-chromen-2-one] | 217 to 221 | **** (fold increase between >1.5 and ≤1.65) | < 0.1 | 300 to 1000 | – | – | –
Cc1cc2cc(-c3cc4ccc(N5CCN(CCO)CC5)cc4oc3=O)oc2c(C)n1 [Compound 774, 3-(5,7-dimethylfuro[2,3-c]pyridin-2-yl)-7-[4-(2-hydroxyethyl)piperazin-1-yl]-2H-chromen-2-one] | 203 to 205 | **** (fold increase between >1.5 and ≤1.65) | < 0.1 | < 300 | – | – | –
Cc1cn2cc(-c3cc4ccc(C5CCN(CCCF)CC5)cc4oc3=O)nc2cn1 [Compound 917, 7-[1-(3-fluoropropyl)piperidin-4-yl]-3-(6-methylimidazo[1,2-a]pyrazin-2-yl)-2H-chromen-2-one] | 224 to 234 | ***** (fold increase >1.65) | < 0.1 | < 300 | – | – | –
Cc1cccc2[nH]c(-c3cc4ccc(N5CCNCC5)cc4oc3=O)nc12 [Compound 394, 3-(4-methyl-1H-benzimidazol-2-yl)-7-(piperazin-1-yl)-2H-chromen-2-one] | 206 to 211 | * (maximum fold increase of ≤1.2) | 3 to 30 | – | – | – | –
Cc1cc2cc(-c3cc4ccc(N5CCN(C(C)C)CC5)cc4oc3=O)oc2c(C)n1 [Compound 789, 3-(5,7-dimethylfuro[2,3-c]pyridin-2-yl)-7-[4-(propan-2-yl)piperazin-1-yl]-2H-chromen-2-one] | 186 to 189 | *** (fold increase between >1.35 and ≤1.5) | < 0.1 | – | – | – | –
